The test system of one test is HT-29. Put plainly: Antiproliferative activity against human HT-29 cells assessed as inhibition of cell proliferation measured after 48 hrs by MTT assay. The format is functional, cell-based. The note with it: HT-29, 48 h. (In general: Tetrazolium dyes change colour on reduction, which living cells bring about.)
Another test has as its system MDA-MB-231. Put plainly: Antiproliferative activity against human MDA-MB-231 cells assessed as inhibition of cell proliferation measured after 48 hrs by MTT assay. The format is functional, cell-based. The note with it: MDA-MB-231, 48 h.
A further test deals with HCT-116. The test is described as follows: Antiproliferative activity against human HCT-116 cells assessed as inhibition of cell proliferation measured after 48 hrs by MTT assay. In kind it is functional, cell-based. The note with it: HCT-116, 48 h.
Test [1] concerns HeLa. The test is described as follows: Antiproliferative activity against human HeLa cells assessed as inhibition of cell proliferation measured after 48 hrs by MTT assay. In kind it is functional, cell-based.
A further test has as its system HEK293. The test is described as follows: Cytotoxicity against HEK293 cells assessed as inhibition of cell proliferation measured after 48 hrs by MTT assay. In kind it is cell-based. The note with it: Homo sapiens, HEK293, 48 h.
Test [2] concerns HeLa. Put plainly: Cell cycle arrest in human HeLa cells assessed as accumulation at G2/M phase at 12 uM measured after 24 hrs by flow cytometry analysis (reference value: 15.22 %). In kind it is functional. For orientation: In flow cytometry, cells or beads pass a laser one at a time.
In test [3] the test system is HeLa. The test is described as follows: Cell cycle arrest in human HeLa cells assessed as accumulation at G2/M phase at 6 uM measured after 24 hrs by flow cytometry analysis (reference value: 15.22 %). In kind it is functional.
Test [4] relates to HeLa. The test is described as follows: Cell cycle arrest in human HeLa cells assessed as accumulation at G1/G0 phase at 6 uM measured after 24 hrs by flow cytometry analysis (reference value: 67.34 %). In kind it is functional.
In test [5] the test system is HeLa. Put plainly: Cell cycle arrest in human HeLa cells assessed as accumulation at G1/G0 phase at 3 uM measured after 24 hrs by flow cytometry analysis (reference value: 67.34 %). In kind it is functional.
Test [6] deals with HeLa. Put plainly: Cell cycle arrest in human HeLa cells assessed as accumulation at S phase at 3 uM measured after 24 hrs by flow cytometry analysis (reference value: 17.44 %). The format is functional.
For test [7], the system named is HeLa. Put plainly: Cell cycle arrest in human HeLa cells assessed as accumulation at G2/M phase at 3 uM measured after 24 hrs by flow cytometry analysis (reference value: 15.22 %). In kind it is functional.
Test [8] has as its system HeLa. The test is described as follows: Cell cycle arrest in human HeLa cells assessed as accumulation at G2/M phase measured after 24 hrs by flow cytometry analysis. The format is functional, cell-based. The following applies: dose 3-12 µM.
The test system of test [9] is HeLa. Put plainly: Cell cycle arrest in human HeLa cells assessed as accumulation at G1/G0 phase at 12 uM measured after 24 hrs by flow cytometry analysis (reference value: 67.34 %). In kind it is functional.
For test [10], the system named is HeLa. The test is described as follows: Cell cycle arrest in human HeLa cells assessed as accumulation at S phase at 6 uM measured after 24 hrs by flow cytometry analysis (reference value: 17.44 %). In kind it is functional.
The subject of test [11] is HeLa. Put plainly: Cell cycle arrest in human HeLa cells assessed as accumulation at S phase at 12 uM measured after 24 hrs by flow cytometry analysis (reference value: 17.44 %). In kind it is functional.

Some results are limits rather than exact numbers.

On to `CC(=O)c1c(C)c2cnc(Nc3ccc(N4CCNCC4)cn3)nc2n(C2CCCC2)c1=O` [PALBOCICLIB], for which the half-inhibitory concentration (IC50) – broadly, the concentration that inhibits the measured activity by half – with HT-29 amounted to 3.56 µM; with MDA-MB-231, 6.21 µM; in the test with HCT-116, 7.11 µM; with HeLa [1], 13.3 µM.

`CC1CCN(c2ccc(Nc3ncc4c(n3)N(C3CCCC3)CC(=O)N4)cc2)CC1`: the concentration for half-maximal inhibition (IC50) was 5.04 µM with HT-29, 22.7 µM in the test with MDA-MB-231, 8.43 µM in the test on HCT-116 and over 30 µM in the test on HeLa [1].

Turning to `CN1CCN(c2ccc(Nc3ncc4c(n3)N(C3CCCC3)CC(=O)N4)cc2)CC1`, the IC50 with HT-29 is 5.22 µM; in the test on HEK293, over 30 µM; with MDA-MB-231, 26.1 µM; in the test with HCT-116, 12.2 µM; in the test with HeLa [1], 21.3 µM.

As for `CC1CCN(c2ccc(Nc3ncc4c(n3)N(C3CCCC3)CC(=O)N4)nc2)CC1`, the IC50 in the test on HT-29, in the test with MDA-MB-231, in the test on HCT-116 and in the test on HeLa [1] was over 30 µM each time.

Turning to `CN1C(=O)CN(C2CCCC2)c2nc(Nc3ccc(N4CCCCC4)cn3)ncc21`, the IC50 was 12.5 µM with HT-29; over 30 µM in the test with HEK293; 29.3 µM in the test with MDA-MB-231; 3.89 µM in the test on HCT-116; over 30 µM in the test on HeLa [1].

With `O=C1CN(C2CCCC2)c2nc(Nc3ccc(N4CCOCC4)cn3)ncc2N1`, the IC50 with HT-29 was 22 µM; in the test with MDA-MB-231, over 30 µM; in the test with HCT-116, 25.3 µM; with HeLa [1], over 30 µM.

Consider `COc1ccc(Nc2ncc3c(n2)N(C2CCCC2)CC(=O)N3C)cc1`, for which the IC50 with MDA-MB-231 was over 30 µM; in the test with HCT-116, 12.3 µM.

`CN1CCN(c2ccc(Nc3ncc4c(n3)N(C3CCCC3)CC(=O)N4C)cc2)CC1`: the Activity in the test with HeLa [2] came out at 88.97%; in the test on HeLa [3] it was 48.98%; in the test with HeLa [4], 47.11%; with HeLa [5], 64.43%; with HeLa [6], 14.6%; with HeLa [7], 20.97%. Moreover, the Activity entry was “Dose-dependent effect” with HeLa [8], 11.03% with HeLa [9], 3.9% with HeLa [10] and 0% in the test on HeLa [11]. For the same molecule, the concentration for half-maximal inhibition (IC50) was 7.56 µM in the test with HT-29; 12.4 µM with HEK293; 10.3 µM with MDA-MB-231; 3.29 µM in the test on HCT-116; 6.75 µM with HeLa [1].

As to `O=C1CN(C2CCCC2)c2nc(Nc3ccc(N4CCCCC4)cc3)ncc2N1`, the IC50 was 5.54 µM with HT-29; 25.1 µM in the test with HEK293; 25 µM in the test on MDA-MB-231; 4.44 µM with HCT-116; over 30 µM with HeLa [1].

For `CCN1C(=O)CN(C2CCCC2)c2nc(Nc3ccc(N4CCC(C)CC4)cc3)ncc21`, the IC50 in the test with HT-29 is 24.4 µM; in the test on HEK293, over 30 µM; in the test with MDA-MB-231, over 30 µM; with HCT-116 it was 5.4 µM; with HeLa [1] it was over 30 µM.

In the case of `CN1CCN(c2ccc(Nc3ncc4c(n3)N(C3CCCC3)CC(=O)N4C)nc2)CC1`, the IC50 in the test on HT-29 turned out to be 11.1 µM; in the test with MDA-MB-231, 23.7 µM; in the test with HCT-116, 9.73 µM; in the test with HeLa [1] it was 13.1 µM.

As to `CCN1C(=O)CN(C2CCCC2)c2nc(Nc3ccc(N4CCN(C)CC4)cc3)ncc21`, the IC50 is 10.3 µM in the test with HT-29; over 30 µM with HEK293; 26.2 µM in the test with MDA-MB-231; 7.96 µM in the test on HCT-116; 28.3 µM in the test with HeLa [1].

For `O=C1CN(C2CCCC2)c2nc(Nc3ccc(N4CCNCC4)cn3)ncc2N1`, the IC50 with HT-29, with MDA-MB-231, in the test on HCT-116 and in the test with HeLa [1] was over 30 µM in each case.

`CCN1C(=O)CN(C2CCCC2)c2nc(Nc3ccc(N4CCOCC4)cn3)ncc21`: the IC50 in the test on HT-29 was 27.6 µM; in the test on MDA-MB-231, over 30 µM; in the test with HCT-116 it was over 30 µM; in the test on HeLa [1] it was over 30 µM.

As for `CC1CCN(c2ccc(Nc3ncc4c(n3)N(C3CCCC3)CC(=O)N4C)cc2)CC1`, the IC50 in the test on HT-29 is over 30 µM; in the test with MDA-MB-231 it was over 30 µM; in the test on HCT-116 it was 25.3 µM; in the test with HeLa [1] it was over 30 µM.

Turning to `CCN1C(=O)CN(C2CCCC2)c2nc(Nc3ccc(N4CCOCC4)cc3)ncc21`, the IC50 was over 30 µM with HT-29, over 30 µM in the test on MDA-MB-231, 9.05 µM with HCT-116 and over 30 µM in the test on HeLa [1].

`CN1C(=O)CN(C2CCCC2)c2nc(Nc3ccc(N4CCOCC4)cn3)ncc21`: the IC50 with HT-29 is 28.4 µM; in the test with MDA-MB-231, over 30 µM; in the test on HCT-116, 23.6 µM; in the test with HeLa [1], over 30 µM.

As for `CCN1C(=O)CN(C2CCCC2)c2nc(Nc3ccc(N4CCCCC4)cn3)ncc21`, the IC50 in the test with HT-29 was 22 µM; in the test with HEK293 it was over 30 µM; in the test with MDA-MB-231, 28.2 µM; with HCT-116, 14.5 µM; with HeLa [1] it was 17.6 µM.

On to `CCN1C(=O)CN(C2CCCC2)c2nc(Nc3ccc(OC)cc3)ncc21`, for which the half-maximal inhibitory concentration (IC50) with MDA-MB-231 is over 30 µM; in the test on HCT-116 it was 11 µM.

On to `CN1C(=O)CN(C2CCCC2)c2nc(Nc3ccc(N4CCOCC4)cc3)ncc21`, for which the half-inhibitory concentration (IC50) is 20.1 µM with HT-29, over 30 µM in the test on MDA-MB-231, over 30 µM in the test on HCT-116 and over 30 µM with HeLa [1].

As to `COc1ccc(Nc2ncc3c(n2)N(C2CCCC2)CC(=O)N3)cc1`, the IC50 in the test on MDA-MB-231 and in the test on HCT-116 was over 30 µM in each case.

Turning to `O=C1CN(C2CCCC2)c2nc(Nc3ccc(N4CCCCC4)cn3)ncc2N1`, the half-maximal inhibitory concentration (IC50) in the test with HT-29 was 21.1 µM; with MDA-MB-231, over 30 µM; in the test on HCT-116, over 30 µM; with HeLa [1], over 30 µM.

Take `CN1CCN(c2ccc(Nc3ncc4c(n3)N(C3CCCC3)CC(=O)N4)nc2)CC1`: the concentration for half-maximal inhibition (IC50) was 26.5 µM in the test with HT-29, over 30 µM with MDA-MB-231, over 30 µM in the test with HCT-116 and over 30 µM in the test with HeLa [1].

In the case of `O=C1CN(Cc2ccccc2)c2nc(NCCc3ccccc3)ncc2N1`, the IC50 in the test on HT-29 was over 30 µM; with HEK293, over 30 µM; in the test on HCT-116, 25.4 µM; in the test with HeLa [1], 20.7 µM.

Regarding `CCN1C(=O)CN(C2CCCC2)c2nc(Nc3ccc(N4CCN(C)CC4)cn3)ncc21`, the IC50 in the test with HT-29 was 7.84 µM; with HEK293 it was over 30 µM; with MDA-MB-231 it was 24.1 µM; in the test on HCT-116 it was 16.4 µM; in the test with HeLa [1] it was 29.1 µM.

On to `CCN1C(=O)CN(C2CCCC2)c2nc(Nc3ccc(N4CCC(C)CC4)cn3)ncc21`, for which the concentration for half-maximal inhibition (IC50) in the test on HT-29 is over 30 µM; in the test with MDA-MB-231 it was over 30 µM; in the test with HCT-116, 19.1 µM; with HeLa [1] it was over 30 µM.

Consider `CN1C(=O)CN(C2CCCC2)c2nc(Nc3ccc(N4CCCCC4)cc3)ncc21`, for which the IC50 in the test on HT-29 is 9.86 µM; in the test on HEK293 it was 25.3 µM; in the test on MDA-MB-231, 21.2 µM; with HCT-116, 6.1 µM; in the test on HeLa [1] it was 16.9 µM.

Turning to `O=C1CN(C2CCCC2)c2nc(Nc3ccc(N4CCOCC4)cc3)ncc2N1`, the IC50 in the test with HT-29 was 22.8 µM; with HEK293, over 30 µM; in the test on MDA-MB-231, 25.1 µM; in the test with HCT-116, 9.5 µM; in the test on HeLa [1], 26 µM.

With `CCN1C(=O)CN(C2CCCC2)c2nc(Nc3ccc(N4CCCCC4)cc3)ncc21`, the IC50 is over 30 µM in the test with HT-29; over 30 µM in the test with HEK293; over 30 µM with MDA-MB-231; 5.47 µM in the test with HCT-116; over 30 µM in the test on HeLa [1].

Regarding `CC1CCN(c2ccc(Nc3ncc4c(n3)N(C3CCCC3)CC(=O)N4C)nc2)CC1`, the IC50 is 11.3 µM in the test on HT-29, over 30 µM in the test with MDA-MB-231, over 30 µM with HCT-116 and over 30 µM with HeLa [1].
